The values that follow come from US20080075628A1, “STERILIZED MINOCYCLINE AND RIFAMPIN-CONTAINING MEDICAL DEVICE” (MEDTRONIC, INC., priority 2006, published 2008).

Several values for one entry are separate records, joined by “and”; a condition that tells them apart may be missing. Identical values can stand only once. Like-named read-outs stand apart in the source and are kept apart here.

For this data set the following is noted: for Recoverable rifampin after sterilization, Post EtO % / Recoverable rifampin after sterilization, Post e-beam % / Recoverable rifampin after sterilization, Post gamma % / Recoverable rifampin after sterilization, Post Steam %: relative to pre-sterilization (100%). As for the experimental part: Materials and Methods: Minocycline and rifampin were incorporated into discs, sheet stock and silicone boots and subjected to Steam, EtO, gamma radiation and e-beam sterilization as follows:
Each boot was cut into pieces (24) with scissors. The pieces were extracted together in a 60-125 ml jar w/top. All the pieces were placed in jar, and 4:1 THF/ethanol (50 mL for thick boots; 15 mL for thin boots) was added. The pieces were allowed to swell, and the drug is extracted for 1 hour (1st extraction). The extract was then collected and transferred to a 25-100 mL volumetric flask. A second 4:1 THF/ethanol (50 mL for thick boots w/holes; 10 mL for thin boots with holes) extraction was added to the jar, and the transfer pipette was rinsed with this second extract and discarded. The pieces were allowed to swell, and the drug is extracted for 1 hour (2nd extraction). The extract was then collected and transferred to the 25-100 mL volumetric flask containing the first extract. A small amount of extra solvent was needed to make up to volume due to solvent lost to evaporation and polymer swell. This amount also served as a final rinse of both the polymer and the transfer pipette.
Extraction Process—Sheet Stock
Discs was cut from the sheet stock with a die press. The discs were extracted separate in a 1 oz jar w/top. 4:1 THF/ethanol (5 mL) was added. The pieces were allowed to swell, and the drug is extracted for 1 hour (1st extraction). The extract was then collected and transferred to a 10 mL volumetric flask. A second 4:1 THF/ethanol (5 mL) extraction was added to the jar, and the transfer pipette was rinsed with this second extract and discarded. The pieces were allowed to swell, and the drug is extracted for 1 hour. (2nd extraction). The extract was then collected and transferred to the 10 mL volumetric flask containing the first extract. A small amount of extra solvent was needed to make up to 10 mL due to solvent lost to evaporation and polymer swell. This amount also served as a final rinse of both the polymer and the transfer pipette.
After extraction with THF/ethanol 4:1, extract was transferred to an HPLC vial and injected directly. The following high performance liquid chromatography (HPLC) method was used:
1. Chromatographic Conditions: • Instrument: Agilent 1100 stack • Column: Prodigy analytical column (150×4.6 mm) • Detection mode: UV detection at 238 nm • Flow rate: 1.0 mL/min • Column temperature: 25° C. • Injection volume: 10 uL • Mobile phase A: 1.4 g/L dibasic sodium phosphate buffer pH 6.8 • Mobile phase B: ACN 100%

With `CN(C)c1ccc(O)c2c1C[C@H]1C[C@H]3[C@H](N(C)C)C(O)=C(C(N)=O)C(=O)[C@@]3(O)C(O)=C1C2=O` [minocycline], the “Recoverable minocycline remaining after sterilization, Post Steam %” value came to 0% and the “minocycline remaining with EtO sterilization” value was 86.8-100%.
With `CO[C@H]1/C=C/O[C@@]2(C)Oc3c(C)c(O)c4c(O)c(c(/C=N/N5CCN(C)CC5)c(O)c4c3C2=O)NC(=O)/C(C)=C\C=C\[C@H](C)[C@H](O)[C@@H](C)[C@@H](O)[C@@H](C)[C@H](OC(C)=O)[C@@H]1C` [rifampin], the “rifampin remaining with EtO sterilization” value is 46.0-77.5%. In addition, for the setting “medium 4735–0.005″ Sheet stock”, the “Recoverable rifampin after sterilization, Post EtO %” value (shortened to “Recoverable rifampin … Post EtO %”) was 46.0%. In addition, the “Recoverable rifampin … Post EtO %” value (medium 4735–0.015″ Sheet stock) is reported as 72.0%. Further, for the setting “medium 4850–0.005″ Boot”, the “Recoverable rifampin … Post EtO %” value is listed as 65.4%. Besides, the “Recoverable rifampin … Post EtO %” value (medium 4850–0.005″ Sheet Stock) was 74.1% and 59.1%. Besides, the “Recoverable rifampin … Post EtO %” value (medium 4850–0.015″ Boot) was 77.5%. The “Recoverable rifampin … Post EtO %” value (medium 4850–0.015″ Sheet Stock) came to 71.6%. The “Recoverable rifampin after sterilization, Post e-beam %” value (e-beam, medium 4735–0.015″ Boot) was found to be 90.2%. Moreover, the “Recoverable rifampin after sterilization, Post e-beam %” value (e-beam, medium 4735–0.015″ Sheet stock) is 95.1% and 92.4%. The “incorporated rifampin recovered after e-beam sterilization” value (e-beam, sheet stock, range) is recorded as 92.4-95.1%. Also, under “ethylene oxide, sheet stock incorporating minocycline and rifampin, range over the media tested”, the “incorporated rifampin recovered after ethylene oxide sterilization” value is recorded as 46.0-74.1%. Also, under “gamma radiation, medium 4735–0.005″ Sheet stock”, the “Recoverable rifampin after sterilization, Post gamma %” value (“Recoverable rifampin … Post gamma %” for short) is on record as 81.4%. For the same compound, for the setting “gamma radiation, medium 4735–0.015″ Sheet stock”, the “Recoverable rifampin … Post gamma %” value is 82.8% and 88.6%. Also, where the note is “gamma radiation, medium 4850–0.005″ Sheet Stock”, the “Recoverable rifampin … Post gamma %” value is recorded as 71.5%. In addition, the “Recoverable rifampin … Post gamma %” value (gamma radiation, medium 4850–0.015″ Sheet Stock) turned out to be 78.4%. Moreover, for the setting “gamma radiation, sheet stock, range over the media tested”, the “incorporated rifampin recovered after gamma radiation” value is listed as 75.1-88.6%. The “Recoverable rifampin after sterilization, Post Steam %” value (from here on “Recoverable rifampin … Post Steam %”) (steam sterilization, medium 4735–0.015″ Sheet stock) was 34.3%. The “Recoverable rifampin … Post Steam %” value (steam sterilization, medium 4850–0.005″ Sheet Stock) was 19.5%. Besides, for the setting “steam sterilization, medium 4850–0.015″ Sheet Stock”, the “Recoverable rifampin … Post Steam %” value was determined as 28.3%. Also, the “rifampin recoverable after steam sterilization” value (steam sterilization, silicone sheet stock, range over the media tested) is 19.5 to 34.3%.
